Experimental data: patent US4342774A, “N-Acylcarnosine aluminum salt, its preparation, and a digestive ulcer remedy containing such salt” (Nippon Chemiphar Co., Ltd., priority 1979, dated 1982)
“And” between values parts separate entries of the source, which are not always exact repeats. Identical values can stand only once. Counter-ions that a name gives are not always drawn.

Experiments:
Histamine-induced ulcer = experiment: Histamine-induced ulcer, inhibitory effect, rats; assay type: in vivo, rat (male Donryu strain); conditions: P.O.; for Ulcer index (total length of all lesions): before histamine phosphate 300 mg/kg i.p.; for % Inhibition: vs control of the same run
Procedure: (§1) The anti-ulcer effects and degrees of toxicity of the N-acylcarnosine aluminum compounds according to the invention were determined using rats in which instances various gastric ulcer models of rats were utilized to estimate the anti-ulcer effects.
Histamine-induced ulcer: Groups of ten male Donryu strain rats each weighing 210 to 230 g were deprived of food for 48 hours and then administered intraperitoneally with histamine phosphate (300 mg/kg). Four hours after the administration, each of the animals was sacrificed under ether anesthesia, followed by removal of the stomach and immersion in a 1% formalin solution for ten minutes. The stomach which had been semi-fixed was incised along the greater curvature, and the length (mm) of each lesion was measured under a dissecting microscope (10×). The total length (mm) of all the lesions of each rat was indicated as an ulcer index. Test medicine samples were given orally before the histamine administration.

rats = experiment: Acute toxicity, oral, rats; assay type: in vivo; conditions: P.O., female rats, observed seven days; 10080 min
Procedure: (§2) Acute toxicity: Male and female Wister strain rats each weighing 150 to 200 g were divided into two groups, respectively, each group consisting of ten rats, and were administered orally with some of the N-acylcarnosine aluminum compounds according to the invention. The thus treated rats were visually observed for seven days after the administration.

[1] = Acute toxicity, oral, rats; assay type: in vivo; conditions: rat, in vivo, po; P.O., male rats, observed seven days
Procedure: as §2

Stress ulcer = Stress ulcer (water immersion restraint), inhibitory effect, rats; assay type: in vivo, rat (male Donryu strain); conditions: P.O.; for Ulcer index (total length of all lesions): ten minutes before immersion; for % Inhibition: vs control of the same run
Procedure: as §1
Stress ulcer: Groups of ten male Donryu strain rats each weighing 240 to 260 g were placed in a stress cage which served to immobilize the animals therein and then immersed in a water bath of 23° C. on a level with the xiphoid process according to the method of K. Takagi et al [Jap. […] Seven hours after the immersion, each of the animals was withdrawn from the water bath and immediately sacrificed by a blow on the head, followed by removal of the stomach of each rat. The stomach was slightly inflated by injecting a 1% formalin solution and then immediately immersed in a 1% formalin solution, followed by incising the stomach along its greater curvature to measure the length (mm) of each lesion in the glandular portion under a dissecting microscope (10x). The total length (mm) of all the lesions of each rat was indicated as an ulcer index. Test medicine samples were given orally ten minutes before the immersion in water.

[2] = system: Indomethacin-induced ulcer; experiment: Indomethacin-induced ulcer, inhibitory effect, rats; assay type: in vivo, rat (male Donryu strain); conditions: 300 mg/kg, P.O.; for Ulcer index (total length of all lesions): ten minutes before pylorus ligation, indomethacin 25 mg/kg s.c.; for % Inhibition: vs control of the same run
Procedure: (§3) It will be noted that as control compounds for the purposes of comparison, use was made of L-carnosine, L-glutamine, N-acetyl-L-glutamine aluminum and aluminum sucrose sulfate which are known to have an anti-ulcer effect. The anti-ulcer effects and degrees of toxicity of the N-acylcarnosine aluminum compounds according to the invention were determined using rats in which instances various gastric ulcer models of rats were utilized to estimate the anti-ulcer effects.
Indomethacin-induced ulcer: Groups of ten male Donryu strain rats each weighing 200 to 215 g were deprived of food for 24 hours. Then, the pylorus was ligated under ether anethesia, after which indomethacin was administered subcutaneously in an amount of 25 mg/kg to each rat. Seven hours after the administration, each of the animals was scarificed under ether anethesia to remove its stomach, followed by immersion in a 1% formalin solution for ten minutes. The stomach which had been semi-fixed was incised along its greater curvature, and the length (mm) of each lesion formed in the mucous membrane was measured under a dissecting microscope (10×). The total length (mm) of all the lesions of each rat was indicated as an ulcer index. Test medicine samples were given orally ten minutes before the pylorus legation.

Shay's ulcer = Shay's ulcer (pylorus ligation), inhibitory effect, rats; assay type: in vivo, rat (male Donryu strain); conditions: P.O.; for Ulcer index (total area of all lesions) / % Inhibition: 1,000 mg/kg; for Ulcer index (total area of all lesions): immediately after pylorus ligation; for inhibition in vivo at 1000 mg/kg: 14 h, 1,000 mg/kg
Procedure: as §3
Shay's ulcer: Groups of ten male Donryu strain rats each weighing 210 to 230 g were deprived of food for 48 hours. The pylorus of each rat was ligated according to the method of Shay et al [Gastroenterology, 5, 43-61 (1945)]. Each of the animals was allowed to stand abstained from food and water for further 14 hours and then sacrificed to remove its stomach. After collection of the gastric juice, the ulcerated area (mm^2) in the forestomach of each rat was measured under a dissecting microscope (10x). The total area (mm^2) of all the lesions of each rat was indicated as an ulcer index. Test medicine samples were given orally immediately after the pylorus ligation.

Aspirin-induced ulcer = experiment: Aspirin-induced ulcer, inhibitory effect, rats; assay type: in vivo, rat (male Donryu strain); conditions: 1,000 mg/kg, P.O.; for Ulcer index (total length of all lesions): immediately after pylorus ligation, aspirin 100 mg/kg; for % Inhibition: vs control of the same run
Procedure: as §3
Aspirin-induced ulcer: Groups of ten male Donryu strain rats each weighing 220 to 230 g were deprived of food for 24 hours. The pylorus of each rat was ligated under ether anethesia according to the method of S. Okabe et al [Jap. J. Pharmac. 24, 357-361 (1974)]. After the pylorus ligation, aspirin (100 mg/kg) was administered orally to each rat. Seven hours after the administration, each of the animals was sacrificed under ether anesthesia to remove its stomach. After collection of the gastric juice and treatment with a 1% formalin solution, the length (mm) of each lesion formed in the glandular portion was measured. The total length (mm) of all the lesions of each rat was indicated as an ulcer index. Test medicine samples were given orally immediately after the pylorus ligation.

[3] = Rattus norvegicus, po, vs control of the same run

| Molecule | Ulcer index (total length of all lesions) (Histamine-induced ulcer; 300 mg/kg) | % Inhibition (Histamine-induced ulcer; 300 mg/kg) | Ulcer index (total length of all lesions) (Stress ulcer; 1,000 mg/kg) | % Inhibition (Stress ulcer; 1,000 mg/kg) | Ulcer index (total length of all lesions) [2] | % Inhibition [2] | Ulcer index (total area of all lesions) (Shay's ulcer) | inhibition in vivo at 1000 mg/kg (Shay's ulcer; [3]) [%] | Ulcer index (total length of all lesions) (Aspirin-induced ulcer) | % Inhibition (Aspirin-induced ulcer) | % Inhibition (Shay's ulcer; vs control of the same run) | other results |
| --- | --- | --- | --- | --- | --- | --- | --- | --- | --- | --- | --- | --- |
| CC(=O)NCCC(=O)N[C@@H](Cc1c[nH]cn1)C(=O)O [B, N-acetyl-L-carnosine aluminum salt] | 9.1 ± 1.9 mm | 60.4% | 4.8 ± 2.6 mm | 72.6% | 6.4 ± 2.2 mm | 61.9% | 0.6 ± 0.4 mm^2 | 76 | 0.6 ± 0.6 mm | 96.4% | – | LD50 (rats): > 10,000 mg/kg; LD50 at 168 h [1]: > 10000 mg/kg; Ulcer index (total length of all lesions) (Stress ulcer; 300 mg/kg): 9.2 ± 3.0 mm; % Inhibition (Stress ulcer; 300 mg/kg): 47.4% |
| CC(=O)NCCC(=O)N[C@@H](Cc1c[nH]cn1)C(=O)O [D, N-acetyl-L-carnosine aluminum salt] | – | – | – | – | – | – | 0.9 ± 0.9 mm^2 | – | – | – | 69.0% | – |
| CCC(=O)NCCC(=O)N[C@@H](Cc1c[nH]cn1)C(=O)O [E, N-propionyl-L-carnosine aluminum salt] | – | – | – | – | – | – | 0.7 ± 0.5 mm^2 | 77.4 | – | – | – | – |
| COc1ccccc1C(=O)NCCC(=O)N[C@@H](Cc1c[nH]cn1)C(=O)O [I, N-(o-methoxy)benzoyl-L-carnosine aluminum salt] | – | – | – | – | – | – | 1.1 ± 0.8 mm^2 | 64.5 | – | – | – | – |
| CC(=O)NCCC(=O)N[C@@H](Cc1c[nH]cn1)C(=O)O [C, N-acetyl-L-carnosine aluminum salt] | – | – | – | – | – | – | 1.0 ± 0.7 mm^2 | – | – | – | 65.5% | – |
| CCC(=O)NCCC(=O)N[C@@H](Cc1c[nH]cn1)C(=O)O [F, N-propionyl-L-carnosine aluminum salt] | – | – | – | – | – | – | 0.9 ± 0.7 mm^2 | – | – | – | 71.0% | – |
| NC(=O)CC[C@H](N)C(=O)O [L-Glutamine, L-glutamine] | – | – | – | – | 9.5 ± 4.1 mm and 9.7 ± 3.9 mm | 41.8% and 42.3% | – | 8.3 | 6.0 ± 2.2 mm and 4.5 ± 1.5 mm | 66.1% and 73.2% | – | – |
| NCCC(=O)N[C@@H](Cc1c[nH]cn1)C(=O)O [L-Carnosine, L-carnosine] | 17.3 ± 3.2 mm and 18.0 ± 2.7 mm | 28.2% and 21.7% | 10.7 ± 2.2 mm and 12.1 ± 2.5 mm | 29.6% and 30.9% | 17.3 ± 3.0 mm and 17.1 ± 3.1 mm | ~ 0% | – | 12.5 | – | – | – | Ulcer index (total length of all lesions) (Stress ulcer; 300 mg/kg): 14.2 ± 3.7 mm and 16.0 ± 4.0 mm; % Inhibition (Stress ulcer; 300 mg/kg): 6.6% and 8.6% |
| CC(=O)N[C@@H](CCC(N)=O)C(=O)O.[Al] [N-Acetyl-L-glutamine aluminum, N-acetyl-L-glutamine aluminum] | – | – | – | – | – | – | – | – | – | – | – | Ulcer index (total length of all lesions) (Histamine-induced ulcer; 2,000 mg/kg): 8.5 ± 3.0 mm; % Inhibition (Histamine-induced ulcer; 2,000 mg/kg): 63.0%; Ulcer index (total length of all lesions) (Stress ulcer; 2,000 mg/kg): 5.5 ± 4.8 mm; % Inhibition (Stress ulcer; 2,000 mg/kg): 68.6%; inhibition in vivo at 2000 mg/kg (Shay's ulcer; Rattus norvegicus, po, 14 h, 2,000 mg/kg, vs control of the same run): 67.7% |
| CC(=O)NCCC(=O)NC(Cc1c[nH]cn1)C(=O)O (racemic) [A, N-acetyl-DL-carnosine aluminum salt] | 9.6 ± 1.8 mm | 60.2% | 4.4 ± 2.2 mm | 71.1% | 6.5 ± 2.2 mm | 60.1% | 0.5 ± 0.5 mm^2 | 79.2 | 0.6 ± 0.6 mm | 96.6% | – | LD50 (rats): > 10,000 mg/kg; LD50 at 168 h [1]: > 10000 mg/kg; Ulcer index (total length of all lesions) (Stress ulcer; 300 mg/kg): 8.0 ± 2.8 mm; % Inhibition (Stress ulcer; 300 mg/kg): 47.4% |
| O=C(CCNC(=O)c1ccccc1)N[C@@H](Cc1c[nH]cn1)C(=O)O [H, N-benzoyl-L-carnosine aluminum salt] | – | – | – | – | – | – | 1.0 ± 0.9 mm^2 | 67.7 | – | – | – | – |
| aluminum sucrose sulfate | 14.4 ± 1.5 mm and 10.7 ± 2.1 mm | 40.2% and 53.5% | 6.5 ± 6.0 mm and 7.3 ± 6.8 mm | 56.7% and 58.3% | 7.8 ± 3.0 mm and 7.4 ± 2.8 mm | 52.1% and 56.0% | 0.8 ± 0.6 mm^2 and 0.9 ± 0.5 mm^2 and 0.7 ± 0.8 mm^2 and 0.8 ± 0.9 mm^2 | – | 3.7 ± 2.1 mm and 2.0 ± 1.1 mm | 79.1% and 88.1% | 72.4% and 71.0% and 71.7% and 68.0% | – |
| CCCCCCC(=O)NCCC(=O)N[C@@H](Cc1c[nH]cn1)C(=O)O [G, N-heptanoyl-L-carnosine aluminum salt] | – | – | – | – | – | – | 0.9 ± 1.0 mm^2 | 71 | – | – | – | – |
